Experimental data published in article PMC7247425, “MRP1-Collateral Sensitizers as a Novel Therapeutic Approach in Resistant Cancer Therapy: An In Vitro and In Vivo Study in Lung Resistant Tumor” (International Journal of Molecular Sciences, 2020).

What was measured:
[1] = test system: A549/DX cells; experiment: In vivo tumor growth of A549/DX xenografts; set-up: species or system nu/nu BALB/C mice; settings: A549/DX xenografts, 50 mg/kg cis-Pt i.p.
Method: In order to translate in vivo the capability of F397, F400, and F421 to act as “sensitizers”, A549/DX cells were implanted in immune-deficient BALB/C mice, and once the tumor reached the volume of 50 mm^3, the mice were randomized and treated […] with the vehicle (saline solution) and/or cis-Pt.
(§1) Here, 1 × 10^6 A549/DX cells were mixed with 100 μl Matrigel implanted in 6-week-old female nu/nu BALB/C mice (Charles River Laboratories Italia, Calco, Italy), housed (5 per cage) under 12 h light/dark cycle, with food and drinking provided ad libitum. Tumor growth was measured daily by caliper, according to the equation (LxW2)/2, where L = tumor length and W = tumor width. When the tumor reached the volume of 50 mm^3, mice (n = 8/group) were randomized and treated as reported in the following groups, treated on day 1, 7, and 14 after randomization: (1) vehicle group (ctrl), treated intraperitoneally (i.p.) with 100 µL saline solution; (2) cis-Pt group, treated i.p. with 50 mg/kg cis-Pt, dissolved in 100 µL water/10% DMSO solution, according to Kopecka et al., 2015 [53]; (3) F397 group, treated i.p. with 750 nmoles of the compound, dissolved in 100 µL water/10% DMSO solution, corresponding to the maximum tolerated dose (not shown and Table 2); (4) F421 group, treated i.p. with 750 nmoles of the compound, dissolved in 100 µL water/10% DMSO solution i.p, corresponding to the maximum tolerated dose (not shown and Table 2); (5) cis-Pt/F397 group, treated i.p. with 50 mg/kg Cis-Pt and 750 nmoles of F397; (6) cis-Pt/F421 group, treated i.p. with 50 mg/kg cis-Pt and 750 nmoles of F421; (7) MK571 group, treated i.p. with 3 mg/kg MK571 dissolved in 100 µL water/10% DMSO solution, according to Jones et al., 1989 [56]; (8) MK571/F397 group, treated i.p. with 3 mg/kg MK571 and 750 nmoles of F397; (9) MK571/F421 group, treated i.p. with 3 mg/kg MK571 and 750 nmoles of F421. Tumor volumes were monitored daily. Animals were euthanized at day 21 after randomization with zolazepam (0.2 mL/kg) and xylazine (16 mg/kg). Lactate dehydrogenase (LDH), aspartate aminotransferase (AST), alanine aminotransferase (ALT), alkaline phosphatase (AP), creatinine, and creatine phosphokinase (CPK) were measured on blood samples collected immediately after euthanasia, using commercially available kits from Beckman Coulter Inc. (Beckman Coulter, Miami, FL, USA).

[2] = test system: A549/DX cells; experiment: Cell viability (MTT) of A549/DX cells at 72 h, alone and in co-administration; format: cell-based, human
Method: Indeed, the accurate detection of cell viability in A549 cells was critical in calculating the SR in a reliable manner.
First, we wondered if there was a correlation between the inhibition of the MRP1 protein and the CS properties of the compounds.
(§2) The determination of cell growth was performed using an MTT assay at 24 or 72 h. On day 1, 10,000 cells/well were seeded into 96-well plates in a volume of 100 μL. […] In all the experiments, the various drug solvents (ethanol, DMSO) were added in each control to evaluate a possible solvent cytotoxicity. After the established incubation time with drugs, 10 μL MTT (0.5 mg/mL) was added to each well, and after 3 h incubation at 37°C, the supernatant was removed. The formazan crystals were solubilized using 100 μL of DMSO and the absorbance values at 570 and 630 nm were determined on the microplate reader Victor 3 from PerkinElmer Life Sciences. The absorbance of the untreated cells was considered equal to 100% cell viability; the viability of cells measured in each experimental condition was expressed as a percentage of viable cells in the considered condition vs. the viability of the untreated cells.

[3] = Hemato-chemical parameters and tolerability in treated mice; format: in vivo; settings: blood after euthanasia day 21; i.p. treatment day 1, 7, 14; means ± SD, n = 8
Method: as §1

[4] = target: MRP1 (Homo sapiens, UniProt P33527); experiment: Calcein-AM transport inhibition in MDCK-MRP1 cells (MRP1 activity)
Method: Each cell line (30,000 cells per well) was seeded into a black CulturePlate 96/well plate with a 100 μL medium and allowed to become confluent overnight. […] In these experimental conditions, the Calcein cell accumulation in the absence and in the presence of the tested compounds was evaluated and the fluorescence basal level was estimated with the untreated cells. In treated wells, the increase in fluorescence with respect to the basal level was measured. EC50 values were determined by fitting the fluorescence increase percentage vs. log(dose).

[5] = test system: MDCK-MRP1 cells; experiment: Antiproliferative MTT assay in MDCK-wt and MDCK-MRP1 cells, selectivity ratio; format: cell-based, canine; settings: EC50 of MDCK cells/EC50 of MDCK-MRP1 cells
Method: Within the search for novel CS agents acting on MRP1 proteins, the compounds selected among the different series of sigma-2 ligands were investigated for their activity at MRP1, paralleled with their cytotoxicity in the parental Madin–Darby canine kidney (MDCK-wt) cells and in the MDR-derived cells (MDCK-MRP1) for the determination of their SR (EC50 parental cells/EC50 MDR cells). The activity at the MRP1 pump was determined measuring the transport inhibition of the pro-fluorescent probe Calcein-AM, an MRP1 substrate, in the MRP1-overexpressing cell line (MDCK-MRP1) by the in vitro biological assay usually performed to study an MRP1 interaction. […] The SR was measured as the EC50 of the MDCK cells/EC50 of the MDCK-MRP1 cells.
as §2

MRP1, sequence (P33527 whole entry): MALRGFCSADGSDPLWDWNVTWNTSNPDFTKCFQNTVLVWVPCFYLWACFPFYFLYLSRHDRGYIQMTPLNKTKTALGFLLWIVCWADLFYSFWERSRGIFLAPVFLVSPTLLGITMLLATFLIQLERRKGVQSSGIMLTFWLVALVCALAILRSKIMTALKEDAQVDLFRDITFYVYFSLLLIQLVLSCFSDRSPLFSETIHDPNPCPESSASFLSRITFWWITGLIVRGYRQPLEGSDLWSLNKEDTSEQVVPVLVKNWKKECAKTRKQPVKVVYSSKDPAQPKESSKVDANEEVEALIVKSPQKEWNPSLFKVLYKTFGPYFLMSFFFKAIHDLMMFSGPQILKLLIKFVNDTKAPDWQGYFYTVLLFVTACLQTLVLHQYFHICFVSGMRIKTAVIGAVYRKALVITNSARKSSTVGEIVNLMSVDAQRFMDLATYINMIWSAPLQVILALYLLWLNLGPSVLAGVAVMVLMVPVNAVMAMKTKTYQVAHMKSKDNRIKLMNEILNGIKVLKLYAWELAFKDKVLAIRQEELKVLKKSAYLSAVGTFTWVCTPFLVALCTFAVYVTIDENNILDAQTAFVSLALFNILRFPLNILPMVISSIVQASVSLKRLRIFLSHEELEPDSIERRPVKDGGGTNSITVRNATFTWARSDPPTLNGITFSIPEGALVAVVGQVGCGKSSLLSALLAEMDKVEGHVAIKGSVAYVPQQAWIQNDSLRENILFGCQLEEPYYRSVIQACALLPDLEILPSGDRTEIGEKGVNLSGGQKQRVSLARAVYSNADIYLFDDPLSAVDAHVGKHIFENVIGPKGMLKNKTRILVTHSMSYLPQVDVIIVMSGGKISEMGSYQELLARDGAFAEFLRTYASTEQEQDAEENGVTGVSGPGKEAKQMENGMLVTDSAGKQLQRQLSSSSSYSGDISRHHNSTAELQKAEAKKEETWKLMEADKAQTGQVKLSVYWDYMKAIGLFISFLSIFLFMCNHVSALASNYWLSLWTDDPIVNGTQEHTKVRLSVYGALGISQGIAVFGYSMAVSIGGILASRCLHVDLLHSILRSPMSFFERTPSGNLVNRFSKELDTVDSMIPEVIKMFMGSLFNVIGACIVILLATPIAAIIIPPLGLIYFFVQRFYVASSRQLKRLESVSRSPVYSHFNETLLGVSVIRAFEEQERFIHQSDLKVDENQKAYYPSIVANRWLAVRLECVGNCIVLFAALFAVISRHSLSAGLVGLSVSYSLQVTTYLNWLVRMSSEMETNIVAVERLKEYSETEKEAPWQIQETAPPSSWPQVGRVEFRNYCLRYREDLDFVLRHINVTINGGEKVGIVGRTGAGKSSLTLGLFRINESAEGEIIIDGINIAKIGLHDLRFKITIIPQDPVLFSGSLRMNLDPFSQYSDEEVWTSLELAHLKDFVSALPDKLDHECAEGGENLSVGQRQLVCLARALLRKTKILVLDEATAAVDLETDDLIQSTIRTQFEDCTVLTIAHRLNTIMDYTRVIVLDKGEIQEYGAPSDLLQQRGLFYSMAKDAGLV

SMILES | Tumor growth, cis-Pt alone [1] | Sensitivity to cis-Pt co-administrated with MK571 ([2]; cis-Pt 25 μM + MK571 25 μM) | ALT [3] [U/L] | AP [3] [U/L] | AST [3] [U/L] | CPK [3] [U/L] | LDH [3] [U/L] | Cytotoxicity / antiproliferative effect alone ([2]; 25 μM alone) | EC50 [4] [µM] | SR (selectivity ratio) [5]
N.N.[Cl][Pt][Cl] [Cis-Pt, cis-platinum, reference compound] | resistance of A549/DX against the standard chemotherapy regimen | restored when co-administrated with MK571 | 41 ± 9 | 129 ± 14 | 91 ± 34 | 259 ± 98 | 7092 ± 542 | – | – | –
CN(C)C(=O)CCSC(SCCC(=O)O)c1cccc(/C=C/c2ccc3ccc(Cl)cc3n2)c1 (stereo not drawn) [MK571, reference compound] | – | – | 41 ± 7 | 117 ± 33 | 101 ± 33 | 334 ± 81 | 7141 ± 927 | not cytotoxic | – | –
Fc1ccc(-n2cc(CCCCN3CCC4(CC3)OCc3ccccc34)c3ccccc32)cc1 [Siramesine, siramesine, reference compound] | – | – | – | – | – | – | – | – | 23.2 ± 4.5 | 0.56
